± gives the standard deviation of the averaged measurements.
How the values were obtained:
Danio rerio embryo [1] = experiment: EC50 Yolk sac size_Increase; conditions: exposure time: 4 dpf
Protocol: (§1)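 Zebrafish embryos (UFZ-OBI strain) were exposed from 2 hpf for 48 h (2 dpf) or 96 h (4 dpf) at 28 °C; spontaneous tail coiling was scored at 25 hpf. Morphological features from automated image analysis (FishInspector), heart rate and locomotor response were fitted with drc models. Quantal endpoints were dichotomised at 2.5 SD from controls and fitted with a log-logistic model; heart rate, pigmentation and STC were normalised to the replicate control mean. Betamethasone was tested as betamethasone dipropionate, diflorasone as diflorasone diacetate.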

Danio rerio embryo [2] = experiment: EC10 Otolith-eye distance_Decrease; higher = less potent; conditions: exposure time: 4 dpf
Protocol: as §1

Danio rerio embryo [3] = experiment: EC20 Eye size_Decrease; higher = less potent
Protocol: as §1

Danio rerio embryo [4] = experiment: EC20 Head trunk angle_Decrease; higher = less potent; conditions: exposure time: 2 dpf
Protocol: as §1

Danio rerio embryo [5] = experiment: EC50 Body length_Decrease
Protocol: as §1

Danio rerio embryo [6] = experiment: EC10 Curvature_Increase; higher = less potent; conditions: exposure time: 2 dpf
Protocol: as §1

Danio rerio embryo [7] = experiment: EC50 Curvature_Increase; conditions: exposure time: 2 dpf
Protocol: as §1

Danio rerio embryo [8] = experiment: EC10 Pericard size_Increase; higher = less potent; conditions: exposure time: 4 dpf
Protocol: as §1

Danio rerio embryo [9] = experiment: EC20 Eye-jaw distance_Decrease; higher = less potent; conditions: exposure time: 4 dpf
Protocol: as §1

Danio rerio embryo [10] = test system: Danio rerio embryo
Protocol: as §1

Danio rerio embryo [11] = experiment: EC50 Eye-jaw distance_Decrease; conditions: exposure time: 4 dpf
Protocol: as §1

Danio rerio embryo [12] = experiment: EC20 Curvature_Increase; higher = less potent; conditions: exposure time: 2 dpf
Protocol: as §1

Danio rerio embryo [13] = experiment: EC10 Bladder size_Decrease; higher = less potent; conditions: exposure time: 4 dpf
Protocol: as §1

Danio rerio embryo [14] = experiment: EC20 Otolith-eye distance_Decrease; higher = less potent; conditions: exposure time: 4 dpf
Protocol: as §1

Danio rerio embryo [15] = experiment: EC10 Yolk sac size_Increase; higher = less potent; conditions: exposure time: 4 dpf
Protocol: as §1

Danio rerio embryo [16] = conditions: exposure time: 4 dpf
Protocol: as §1

Danio rerio embryo [17] = experiment: EC50 Otolith-eye distance_Decrease; conditions: exposure time: 4 dpf
Protocol: as §1

Danio rerio embryo [18] = experiment: EC20 Pericard size_Increase; higher = less potent; conditions: exposure time: 4 dpf
Protocol: as §1

Danio rerio embryo [19] = experiment: EC10 Body length_Decrease; higher = less potent
Protocol: as §1

Danio rerio embryo [20] = experiment: EC20 Body length_Decrease; higher = less potent
Protocol: as §1

Danio rerio embryo [21] = experiment: EC20 LMR dark; higher = less potent; conditions: exposure time: 4 dpf
Protocol: as §1

Danio rerio embryo [22] = experiment: EC50 Pericard size_Increase; conditions: exposure time: 4 dpf
Protocol: as §1

Danio rerio embryo [23] = experiment: EC10 Eye-jaw distance_Decrease; higher = less potent; conditions: exposure time: 4 dpf
Protocol: as §1

Danio rerio embryo [24] = experiment: spontaneous tail coiling frequency (coils/min/embryo); higher = more spontaneous movement; conditions: 25 hpf
Protocol: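 Spontaneous tail coilings of zebrafish embryos exposed from 2 hpf were recorded at 24-25 hpf in 1-min videos and detected by a KNIME workflow from grey-value variance. Betamethasone was tested as the dipropionate, diflorasone as the diacetate.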

Danio rerio embryo [25] = experiment: EC20 Yolk sac size_Increase; higher = less potent; conditions: exposure time: 4 dpf
Protocol: as §1

Danio rerio embryo [26] = experiment: EC10 LMR dark; higher = less potent; conditions: exposure time: 4 dpf
Protocol: as §1

Danio rerio embryo [27] = experiment: EC20 Bladder size_Decrease; higher = less potent; conditions: exposure time: 4 dpf
Protocol: as §1

Danio rerio embryo [28] = experiment: EC10 Any effect; higher = less potent
Protocol: as §1

Danio rerio embryo [29] = experiment: EC50 Bladder size_Decrease; conditions: exposure time: 4 dpf
Protocol: as §1

Danio rerio embryo [30] = experiment: EC20 Any effect; higher = less potent
Protocol: as §1

CCOC(=O)N1CCC(=C2c3ccc(Cl)cc3CCc3cccnc32)CC1 [Loratadine]
Conditions | EC10 Bladder size Decrease [µM] | EC10 Curvature Increase [µM] | EC10 Eye-jaw distance Decrease [µM] | EC10 LMR dark [µM] | EC10 Otolith-eye distance Decrease [µM] | EC10 Pericard size Increase [µM] | EC10 Yolk sac size Increase [µM] | EC20 Bladder size Decrease [µM] | EC20 Curvature Increase [µM] | EC20 Eye-jaw distance Decrease [µM] | EC20 Head trunk angle Decrease [µM] | EC20 LMR dark [µM] | EC20 Otolith-eye distance Decrease [µM] | EC20 Pericard size Increase [µM] | EC20 Yolk sac size Increase [µM] | EC50 Bladder size Decrease [µM] | EC50 Curvature Increase [µM] | EC50 Eye-jaw distance Decrease [µM] | EC50 LMR dark [µM] | EC50 Otolith-eye distance Decrease [µM] | EC50 Pericard size Increase [µM] | EC50 Yolk sac size Increase [µM]
Danio rerio embryo [1] | – | – | – | – | – | – | – | – | – | – | – | – | – | – | – | – | – | – | – | – | – | 11.6
Danio rerio embryo [2] | – | – | – | – | 4.17 | – | – | – | – | – | – | – | – | – | – | – | – | – | – | – | – | –
Danio rerio embryo [4] | – | – | – | – | – | – | – | – | – | – | 5.06 | – | – | – | – | – | – | – | – | – | – | –
Danio rerio embryo [6] | – | 3.56 | – | – | – | – | – | – | – | – | – | – | – | – | – | – | – | – | – | – | – | –
Danio rerio embryo [7] | – | – | – | – | – | – | – | – | – | – | – | – | – | – | – | – | 6.62 | – | – | – | – | –
Danio rerio embryo [8] | – | – | – | – | – | 3.01 | – | – | – | – | – | – | – | – | – | – | – | – | – | – | – | –
Danio rerio embryo [9] | – | – | – | – | – | – | – | – | – | 5.67 | – | – | – | – | – | – | – | – | – | – | – | –
Danio rerio embryo [11] | – | – | – | – | – | – | – | – | – | – | – | – | – | – | – | – | – | 6.86 | – | – | – | –
Danio rerio embryo [12] | – | – | – | – | – | – | – | – | 4.48 | – | – | – | – | – | – | – | – | – | – | – | – | –
Danio rerio embryo [13] | 0.165 | – | – | – | – | – | – | – | – | – | – | – | – | – | – | – | – | – | – | – | – | –
Danio rerio embryo [14] | – | – | – | – | – | – | – | – | – | – | – | – | 4.62 | – | – | – | – | – | – | – | – | –
Danio rerio embryo [15] | – | – | – | – | – | – | 4.91 | – | – | – | – | – | – | – | – | – | – | – | – | – | – | –
Danio rerio embryo [16] | – | – | – | – | – | – | – | – | – | – | – | – | – | – | – | – | – | – | 0.399 | – | – | –
Danio rerio embryo [17] | – | – | – | – | – | – | – | – | – | – | – | – | – | – | – | – | – | – | – | 5.49 | – | –
Danio rerio embryo [18] | – | – | – | – | – | – | – | – | – | – | – | – | – | 4.72 | – | – | – | – | – | – | – | –
Danio rerio embryo [21] | – | – | – | – | – | – | – | – | – | – | – | 0.318 | – | – | – | – | – | – | – | – | – | –
Danio rerio embryo [22] | – | – | – | – | – | – | – | – | – | – | – | – | – | – | – | – | – | – | – | – | 10.2 | –
Danio rerio embryo [23] | – | – | 5.07 | – | – | – | – | – | – | – | – | – | – | – | – | – | – | – | – | – | – | –
Danio rerio embryo [25] | – | – | – | – | – | – | – | – | – | – | – | – | – | – | 6.74 | – | – | – | – | – | – | –
Danio rerio embryo [26] | – | – | – | 0.279 | – | – | – | – | – | – | – | – | – | – | – | – | – | – | – | – | – | –
Danio rerio embryo [27] | – | – | – | – | – | – | – | 0.201 | – | – | – | – | – | – | – | – | – | – | – | – | – | –
Danio rerio embryo [29] | – | – | – | – | – | – | – | – | – | – | – | – | – | – | – | 0.282 | – | – | – | – | – | –

Conditions | EC10 Any effect [µM] | EC10 Body length Decrease [µM] | EC20 Any effect [µM] | EC20 Body length Decrease [µM] | EC20 Eye size Decrease [µM] | EC50 Any effect [µM] | EC50 Body length Decrease [µM] | EC50 STC decrease [µM] | spontaneous tail coiling frequency
Danio rerio embryo [3], exposure time: 2 dpf | – | – | – | – | 6.71 | – | – | – | –
Danio rerio embryo [3], exposure time: 4 dpf | – | – | – | – | 5.96 | – | – | – | –
Danio rerio embryo [5], exposure time: 2 dpf | – | – | – | – | – | – | 7.83 | – | –
Danio rerio embryo [5], exposure time: 4 dpf | – | – | – | – | – | – | 0.442 | – | –
Danio rerio embryo [10], exposure time: 2 dpf | – | – | – | – | – | 6.4 | – | – | –
Danio rerio embryo [10], exposure time: 4 dpf | – | – | – | – | – | 0.438 | – | – | –
Danio rerio embryo [10], exposure time: 25 h | – | – | – | – | – | – | – | 6.63 | –
Danio rerio embryo [19], exposure time: 2 dpf | – | 5.13 | – | – | – | – | – | – | –
Danio rerio embryo [19], exposure time: 4 dpf | – | 0.383 | – | – | – | – | – | – | –
Danio rerio embryo [20], exposure time: 2 dpf | – | – | – | 6 | – | – | – | – | –
Danio rerio embryo [20], exposure time: 4 dpf | – | – | – | 0.404 | – | – | – | – | –
Danio rerio embryo [24], 0.155 µM | – | – | – | – | – | – | – | – | 2.97
Danio rerio embryo [24], 0.31 µM | – | – | – | – | – | – | – | – | 1.28
Danio rerio embryo [24], 0.61 µM | – | – | – | – | – | – | – | – | 1.66
Danio rerio embryo [24], 1.22 µM | – | – | – | – | – | – | – | – | 1.82 ± 0.75
Danio rerio embryo [24], 2.45 µM | – | – | – | – | – | – | – | – | 2.58 ± 0.62
Danio rerio embryo [24], 4.9 µM | – | – | – | – | – | – | – | – | 1.79 ± 0.028
Danio rerio embryo [24], 9.79 µM | – | – | – | – | – | – | – | – | 0.505 ± 0.32
Danio rerio embryo [28], exposure time: 2 dpf | 4.34 | – | – | – | – | – | – | – | –
Danio rerio embryo [28], exposure time: 4 dpf | 0.376 | – | – | – | – | – | – | – | –
Danio rerio embryo [30], exposure time: 2 dpf | – | – | 5.01 | – | – | – | – | – | –
Danio rerio embryo [30], exposure time: 4 dpf | – | – | 0.398 | – | – | – | – | – | –

Reference: the supplement of paper PMC9013687
